The record followed here is patent publication US20260042801A1, “COMPOSITIONS AND METHODS FOR DYE-BOUND CYCLIZED PEPTIDES FOR MEDICAL USE” (The Texas A&M University System, priority 2022, published 2026).

Experiment [1] has as its system severe T8 contusion/compression SCI. Description: Preclinical SCI model: locomotor test (BMS) and survival. Conditions: IP daily 5 and 25 mg/kg/day. Type of experiment: in vivo, mouse. As to the method: FIG. 8: Timeline of the preclinical in vivo animal study conducted as evidence of claims. Mice underwent baseline cognitive testing and blood collection immediately before SCI. Mice sustained an SCI at 8 weeks of age. SCI model: thoracic-8 contusion (50 kdyne impact) and compression ([…]), a severe contusion/compression model that accurately represents injuries seen in the clinic. 5c(i) (5 or 25 mg/kg/day) or Vehicle were administered IP daily starting 4 hours post injury to reflect the delay found in the clinic. Locomotor behavioral testing (BMS and Rotarod) were conducted weekly for 7 weeks. 7 weeks after injury, the mice underwent cognitive behavioral testing (NOR and Y-maze) and blood collection once again. Mice were euthanized 7 weeks after sustaining an SCI and underwent perfusion and tissue preparations for further analysis.
9A) BMS Score and 9B) BMS Sub Score were recorded and graphed in relation to time after injury. 9C) Percent of mice surviving at 49 days post injury. […] N=6-8. Graphs show mean and SEM. […] Student's T-test.
Open Field Basso Mouse Scale (BMS): Mice were placed in an open field for 5 minutes to allow mice to freely roam to visually evaluate (by 2 individuals) the following parameters: ankle movements, stepping pattern, coordination, paw placement, trunk instability, and tail position. The mice were scored according to the BMS scoring system^59 with a minimum score of 0 (no movement) to a maximum score of 9 (normal locomotion) followed by the BMS Sub score (assessing stepping patterns, tail movement, trunk posture, paw position, and coordination)^12,60. Rotarod: Mice were placed on a rod rotating at increasing speeds from 5 to 45 rotations per minute (rpm) in a 3-minute interval with constant acceleration to assess strength, endurance, and motor coordination^12,60. Mice were first acclimated to the rotarod with 5 habituation sessions the week before injury. Baseline testing was conducted 1 day before injury. […]

Experiment [2] deals with T1, TrkB (Homo sapiens, UniProt Q16620).
T1 construct: expressed in transfected cells; host or cells: HEK293 (TrkB-HEK293)
T1 sequence (Q16620 32-822, species assumed): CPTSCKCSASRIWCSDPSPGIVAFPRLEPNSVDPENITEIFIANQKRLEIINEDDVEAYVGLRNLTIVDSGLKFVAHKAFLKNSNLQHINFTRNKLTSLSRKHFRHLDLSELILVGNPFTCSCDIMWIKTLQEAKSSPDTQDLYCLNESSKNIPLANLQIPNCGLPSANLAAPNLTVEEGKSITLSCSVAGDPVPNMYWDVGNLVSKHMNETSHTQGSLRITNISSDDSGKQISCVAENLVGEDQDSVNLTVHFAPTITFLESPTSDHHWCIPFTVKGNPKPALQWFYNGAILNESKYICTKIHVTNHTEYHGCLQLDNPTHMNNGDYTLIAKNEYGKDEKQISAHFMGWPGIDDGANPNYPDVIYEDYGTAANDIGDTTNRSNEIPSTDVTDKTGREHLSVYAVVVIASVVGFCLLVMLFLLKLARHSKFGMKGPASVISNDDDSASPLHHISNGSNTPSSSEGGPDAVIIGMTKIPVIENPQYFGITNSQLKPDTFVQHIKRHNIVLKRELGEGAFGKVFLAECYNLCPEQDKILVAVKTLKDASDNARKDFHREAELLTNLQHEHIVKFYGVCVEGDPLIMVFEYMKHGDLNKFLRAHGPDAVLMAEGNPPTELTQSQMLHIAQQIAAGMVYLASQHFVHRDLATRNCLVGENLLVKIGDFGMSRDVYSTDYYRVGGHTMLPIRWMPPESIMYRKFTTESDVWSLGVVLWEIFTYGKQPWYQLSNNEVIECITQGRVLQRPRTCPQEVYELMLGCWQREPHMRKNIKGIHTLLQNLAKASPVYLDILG
Description: Cell-associated fluorescence saturation binding, TrkB-HEK293 cells. Conditions: 2.5 h, with and without 0.6 nM BDNF. As to the method: (§1) FIG. 2: 5c(i) binds to TrkB and TrkC receptors. Transfected cell lines that are Trk positive cells (TrkB-HEK293 and TrkC-NIH/3T3) and non-transfected cell lines that are Trk negative cells (HEK293 and NIH/3T3) were seeded approximately 2,000 cells/well in a 96-well plate and incubated for 24 hours. The cells were treated with a serial dilution of compound (0, 10, 25, 50, 100, 200, 500, and 1000 nM) in serum-free media (SFM) with and without A) 0.6 nM of BDNF (TrkB-HEK293 and HEK293) and B) 0.2 nM of NT-3 (TrkC-NIH/3T3 and NIH/3T3) for 2.5 h. After that, the cells were washed with PBS once to remove unbound compounds and dissolved in 1% (w/v) aqueous sodium dodecyl sulfate. Cell-associated fluorescence was then determined by measuring the emission of the resulting solution upon λex (540/25 nm) and λem (620/40 nm) using Agilent BioTek Synergy H4 Hybrid Microplate Reader. Kd was calculated by GraphPad Prism 9 using Binding saturation (One site—Specific binding).
(§2) Transfected cell lines that are Trk positive cells (TrkA-HeLa, TrkB-HEK293, and TrkC-NIH/3T3) and non-transfected cell lines that are Trk negative cells (HeLa, HEK293, and NIH/3T3) were seeded at 2,000 cells/well in a 96-well plate (0.32 cm^2 growth area) and incubated inside a 5% CO2 incubator at 37° C. for 24 hours. […] The dissociation constant (Kd) was calculated using binding saturation (One site—Specific binding).

Experiment [3] has as its target T2, TrkC (Homo sapiens, UniProt Q16288).
T2 construct: expressed in transfected cells; host or cells: NIH/3T3 (TrkC-NIH/3T3)
The experiment in a line: Cell-associated fluorescence saturation binding, TrkC-NIH/3T3 cells. Conditions: 2.5 h, with and without 0.2 nM NT-3. On the procedure: as §1, §2

Experiment [4] deals with Synapsin I. The experiment in a line: Astrocyte Synapsin I staining (fluorescent intensity). Type of experiment: cell-based, mouse. Conditions: astrocytes from 6-month-old male mice, 5 μM, 3 days. As to the method:
FIGS. 4A-4D: 5c(i) induces Synapsin I production and reduces C3 and GSK-3s expression from astrocytes promoting neuron survival and neurite growth. Primary adult cortical astrocytes from 6-month-old male mice were incubated with 5 μM 5c(i) for 3 days. Graph represents mean±SEM of percent change in fluorescent intensity (Synapsin I and C3) or chemiluminescence (GSK-3β) relative to Vehicle (4A and 4D). Images represent the 4B) Vehicle and 4C) 5 μM 5c(i) treated groups stained with Synapsin I and DAPI. D) Cortical astrocytes from 6-month-old male mice were plated and treated with 5c(i) or Vehicle for 2 days. Cells were then washed and cortical neurons from 6-month-old male mice were added on top of the astrocytes. […] Scale bar=50 μm.
To determine if 5c(i) can modulate astrocytes, adult astrocytes from 6-month-old male mice were treated with 5c(i) for 3 days and stained with Synapsin I and C3 to measure changes in fluorescent intensity or western blot was conducted on the cell lysate to assess changes in GSK-3β expression (FIG. 4). […] To determine if 5c(i) treated astrocytes can directly benefit neuronal recovery, astrocytes were cultured with 5c(i) for 2 days before removing 5c(i) from the culture and plating adult neurons on top of the astrocytes for 2DIV, resulting in increased neuron survival and neurite growth. […]

T2 sequence (Q16288 32-839, species assumed): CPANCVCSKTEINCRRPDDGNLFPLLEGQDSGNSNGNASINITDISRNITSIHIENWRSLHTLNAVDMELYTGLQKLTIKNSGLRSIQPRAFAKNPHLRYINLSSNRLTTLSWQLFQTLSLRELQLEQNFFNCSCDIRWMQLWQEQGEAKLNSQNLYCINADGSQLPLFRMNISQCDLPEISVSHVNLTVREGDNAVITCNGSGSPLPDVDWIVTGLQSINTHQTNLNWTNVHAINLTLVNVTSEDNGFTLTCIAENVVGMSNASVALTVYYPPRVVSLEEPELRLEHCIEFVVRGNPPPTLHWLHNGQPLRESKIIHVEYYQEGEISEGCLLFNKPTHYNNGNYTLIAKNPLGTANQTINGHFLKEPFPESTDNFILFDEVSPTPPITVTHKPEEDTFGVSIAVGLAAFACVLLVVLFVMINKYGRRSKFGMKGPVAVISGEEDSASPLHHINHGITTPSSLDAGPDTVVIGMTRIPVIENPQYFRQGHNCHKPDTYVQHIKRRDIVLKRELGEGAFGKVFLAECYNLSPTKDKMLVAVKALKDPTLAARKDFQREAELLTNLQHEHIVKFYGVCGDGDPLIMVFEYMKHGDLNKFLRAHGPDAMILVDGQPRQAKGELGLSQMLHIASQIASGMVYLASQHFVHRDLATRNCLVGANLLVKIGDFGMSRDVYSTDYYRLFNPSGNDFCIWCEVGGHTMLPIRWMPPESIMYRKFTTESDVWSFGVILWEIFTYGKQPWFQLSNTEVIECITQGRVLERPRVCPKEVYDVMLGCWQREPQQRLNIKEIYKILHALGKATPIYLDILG

For “C-DIRG-C BODIPY® (fluorescent dye) [5c(i)]”, the “mice surviving at 49 days post injury” value in experiment [1] was “improves survival”. In experiment [1] (7 weeks), the “BMS Sub score” value was “significantly improved” and the BMS score entry is “significantly improved”. Moreover, the “affinity for TrkB (Kd)” value in experiment [2] is on record as “low nanomolar affinity”. Moreover, the “affinity for TrkC (Kd)” value in experiment [3] is given as “low nanomolar affinity”. Besides, in experiment [4], the “Synapsin I production” value is given as “significant increase”.
